Laboratory results as given in patent US5654427A, “Indolocarbazole derivatives to treat a pathological condition of the prostate” (Kyowa Hakko Kogyo Co., Ltd., priority 1995, dated 1997).

What was measured:
trkA = biological target: T1, trkA (Rattus norvegicus, UniProt P35739); assay: inhibition of NGF-stimulated trk autophosphorylation (tyrosine phosphorylation) in PC12 cells, anti-phosphotyrosine Western blot; type: cell-based; conditions: 100 nM compound, NGF 50 ng/ml; note: key: +: Inhibited phosphorylation; -: Did not inhibit phosphorylation
T1 construct: are rat pheochromocytoma cells that bear trkA; host or cells: PC12 rat pheochromocytoma cells
T1 sequence (P35739 33-799): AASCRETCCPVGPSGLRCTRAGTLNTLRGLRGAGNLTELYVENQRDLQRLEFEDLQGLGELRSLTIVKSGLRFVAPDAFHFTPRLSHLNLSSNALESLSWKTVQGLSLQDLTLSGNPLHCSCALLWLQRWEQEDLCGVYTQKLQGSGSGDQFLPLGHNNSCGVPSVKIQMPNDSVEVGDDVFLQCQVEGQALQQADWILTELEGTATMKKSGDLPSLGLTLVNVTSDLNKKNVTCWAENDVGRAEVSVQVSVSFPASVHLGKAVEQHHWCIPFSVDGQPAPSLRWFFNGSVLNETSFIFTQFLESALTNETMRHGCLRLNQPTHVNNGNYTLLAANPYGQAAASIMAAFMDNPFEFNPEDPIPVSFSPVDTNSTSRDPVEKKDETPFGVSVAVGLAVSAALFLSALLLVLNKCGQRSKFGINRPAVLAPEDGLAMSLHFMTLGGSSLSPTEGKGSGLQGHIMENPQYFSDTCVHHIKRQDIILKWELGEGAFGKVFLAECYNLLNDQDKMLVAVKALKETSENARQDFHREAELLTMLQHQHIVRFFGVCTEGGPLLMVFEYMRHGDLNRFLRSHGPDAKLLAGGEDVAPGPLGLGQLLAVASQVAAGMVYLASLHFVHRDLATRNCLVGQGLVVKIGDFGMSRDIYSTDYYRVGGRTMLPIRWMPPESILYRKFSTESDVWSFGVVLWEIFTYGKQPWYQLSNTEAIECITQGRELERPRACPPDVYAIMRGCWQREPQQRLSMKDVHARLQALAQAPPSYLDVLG

Tsu-Pr1 = assay: growth inhibition of Tsu-Pr1 prostate cancer cells (calcein fluorescence); type: cell-based; conditions: Homo sapiens, TSU-Pr1, 72 h; 3 days incubation; read-out: Tsu-Pr1 IC50
Description: Throughout the experiment the Tsu-Pr1 and Du-Pro1 cells were maintained in RPMI 1640 medium (GIBCO) containing 10% fetal bovine serum (Hyclone), 2 mM glutamine, 100 U/ml penicillin, and 100 μg/ml streptomycin. The PC-3 cells were maintained in Ham's F12K medium (Irvine Scientific) containing 10% fetal bovine serum (Hyclone), 2 mM glutamine, 100 U/ml penicillin, and 100 μg/ml streptomycin. All cell lines were maintained at 37° C. in a humidified atmosphere containing 5% CO2. The DU-145 cells were maintained in minimal essential medium (Gibco), containing 10% fetal bovine serum (Hyclone), 2 mM glutamine, and no antibiotics.
Tests for growth inhibition by the candidate compounds were conducted by the following procedure. In each well of a 96-well plate (Falcon) were placed 2,500 cells in 0.1 ml of medium. The cultures were incubated overnight after which a 0.1 ml aliquot of culture medium was added to each well. […] Other control wells received medium without any K-252a derivative compounds. Incubation was continued for three days. On day three the number of cells in each well was measured using a calcein fluorescence assay (Bozyczko-Coyne et al. J. Neurosci. Meth. 50, 205-216 (1993)).
Calcein AM (Molecular Probes, Eugene, Oreg.), an analog of the viable dye fluorescein diacetate, is taken up by cells and cleaved intracellularly to fluorescent salts that are retained by intact membranes of viable cells. This method thus provides a reliable and quantitative measurement of cell survival. Calcein AM was diluted 2× in Dulbeccos phosphate buffered saline (D-PBS) to 2× the final assay concentration (6 μM) and 100 μl was added to culture wells containing 100 μl of medium. The plates were then incubated for 1 hour at 37° C. Cells were then washed 4 times with D-PBS to remove excess calcein not taken up by cells. The plate was read using a Millipore plate reading fluorimeter (Cytofluor 2350) at emission=485 nm and excitation=538 nm. After subtraction of blank values (wells containing medium but no cells), relative fluorescent values reflect a quantitative measurement of cell survival.
The number of cells in the wells containing functional derivatives was compared to the number of cells in the control wells. The concentration which inhibited cell growth by 50% was calculated and is referred to as the "IC50 ".

In the case of `COC1(CO)CC2OC1(C)n1c3ccccc3c3c4c(c5c6ccccc6n2c5c31)C(=O)NC4` (centres unmarked) [Compound I-19], the “trk 100 nM (inhibition of phosphorylation)” value (trkA) is reported as “+” and the IC50 (Tsu-Pr1) is reported as 0.07 µM.
